Experimental data reported in the Biogen ADME set (Fang et al. 2023).
In brackets after ≈: the same amount, converted by molar mass.

Conditions: for aqueous solubility: pH 6.8

Structure (SMILES) | MDR1-MDCK efflux ratio | intrinsic clearance, human liver microsomes | intrinsic clearance, rat liver microsomes | aqueous solubility | fraction unbound, human plasma | fraction unbound, rat plasma
Fc1cccc(N2CCCC2)c1CN1CCN(Cc2ccon2)CC1 | 0.64 | 60.6 mL/min/kg | 3460 mL/min/kg | – | – | –
Cc1cccc(CNC(=O)Cn2c(=O)oc3cccnc32)c1 | – | ≤ 4.74 mL/min/kg | ≤ 10.7 mL/min/kg | – | – | –
CC(C)NS(=O)(=O)c1ccc2c(c1)oc(=O)c1cc(S(=O)(=O)NC(C)C)ccc12 | – | – | – | 0.47 µg/mL (≈ 1.07 µM) | – | –
CCC(=O)Nc1cccc(Oc2nc(Nc3ccc(N4CCN(C)CC4)cc3OC)ncc2Cl)c1 | 14 | 15.9 mL/min/kg | 238 mL/min/kg | – | – | –
Cc1cccnc1CN1CCC(O)(c2ccccc2)CC1 | 0.958 | 4.93 mL/min/kg | 684 mL/min/kg | – | – | –
O=C(Nc1nnc2n1CCCC2)c1cscn1 | 4.14 | ≤ 4.74 mL/min/kg | ≤ 10.7 mL/min/kg | – | – | –
Cc1ccc2nc(C)c(C(=O)N3CCC(C(=O)Nc4ccncc4)CC3)cc2c1 | 36.9 | 21.1 mL/min/kg | 70 mL/min/kg | 52.5 µg/mL (≈ 135 µM) | – | –
Cc1cc(C)nc(NC(=O)N(C)C2CCC2)c1 | 0.503 | 92.6 mL/min/kg | 177 mL/min/kg | 41.2 µg/mL (≈ 177 µM) | – | –
C#CCOc1ccc(C(=O)NN2CCCC2=O)cc1 | 1.32 | ≤ 4.74 mL/min/kg | ≤ 10.7 mL/min/kg | 25.3 µg/mL (≈ 97.9 µM) | – | –
c1ccc2nc(N3CCCC4(CCNCC4)CC3)cnc2c1 | 33.3 | ≤ 4.74 mL/min/kg | 495 mL/min/kg | – | – | –
Cc1cccc(C)c1OCCn1nnnc1C | 0.657 | ≤ 4.74 mL/min/kg | 97.1 mL/min/kg | – | – | –
Cc1nc(O)c2c(n1)CN(Cc1ccccc1)CC2 | 9.79 | ≤ 4.74 mL/min/kg | ≤ 10.7 mL/min/kg | 42.7 µg/mL (≈ 167 µM) | – | –
CCc1cc(-c2ccc(OC)c3nc(C)ccc23)nc(N2CCOCC2)n1 | 1.12 | 6.38 mL/min/kg | 105 mL/min/kg | – | – | –
O=C(NC1CCCC1)C(=O)c1ccc2c(c1)CCC2 | 0.548 | 163 mL/min/kg | 908 mL/min/kg | 31.3 µg/mL (≈ 122 µM) | – | –
Cc1nc(NCCN2C(=O)CCC2=O)c2c(C)csc2n1 | 6.04 | 8.08 mL/min/kg | 158 mL/min/kg | – | – | –
O=c1c2cccnc2ncn1[C@H]1CCN(Cc2ccccc2)C1 | 0.776 | ≤ 4.74 mL/min/kg | 162 mL/min/kg | – | – | –
CC(C)COc1ccc(C(C)(C)NCc2nnc(C3CCC3)o2)cc1 | – | 127 mL/min/kg | 3070 mL/min/kg | – | – | –
CN(CCC#N)Cc1cc(C#N)ccc1F | – | ≤ 4.74 mL/min/kg | ≤ 10.7 mL/min/kg | 31.4 µg/mL (≈ 145 µM) | – | –
Cc1ccc2nc3c(c(C(=O)NCc4nnc5n4CCC5)c2c1)CCCC3 | 32.9 | ≤ 4.74 mL/min/kg | 28.8 mL/min/kg | 57.1 µg/mL (≈ 158 µM) | – | –
Nc1n[nH]cc1-c1cc(Cl)ccc1Oc1cc(F)c(S(=O)(=O)Nc2cscn2)cc1Cl | 76.2 | 11.6 mL/min/kg | 37.3 mL/min/kg | 29.9 µg/mL (≈ 59.7 µM) | 0.00442 | 0.00827
Cc1cccc(C)c1OCC(=O)N(C)[C@@H]1CCC[C@@H](O)[C@@H]1O | 11.2 | 9.69 mL/min/kg | 155 mL/min/kg | – | – | –

Structure (SMILES) | MDR1-MDCK efflux ratio | intrinsic clearance, human liver microsomes | intrinsic clearance, rat liver microsomes | aqueous solubility | fraction unbound, human plasma | fraction unbound, rat plasma
COc1cccc(C(=O)Nc2nccs2)c1 | 0.562 | 109 mL/min/kg | 605 mL/min/kg | – | – | –
O=S(=O)(c1ccccc1)N(CC(F)(F)F)c1ccc(C(O)(C(F)(F)F)C(F)(F)F)cc1 | – | 7.61 mL/min/kg | 14.6 mL/min/kg | – | – | –
CCc1nnnn1Cc1noc2c1CCCC2 | 0.792 | ≤ 4.74 mL/min/kg | 60.7 mL/min/kg | 23.2 µg/mL (≈ 99.6 µM) | – | –
CO[C@@H]1CC[C@@H](N(C)C(=O)COc2c(C)cccc2C)[C@H]1O | 1.67 | 12.1 mL/min/kg | 162 mL/min/kg | – | – | –
CSC1(CNc2cncc(Cl)n2)CCOCC1 | – | 10.2 mL/min/kg | 528 mL/min/kg | – | – | –
COc1cc2c(cc1OC)CN(C(=O)C1CCCN(C(=O)Nc3ccccc3)C1)CC2 (configuration not stated) | 27 | ≤ 4.74 mL/min/kg | 65.1 mL/min/kg | 65.5 µg/mL (≈ 155 µM) | – | –
Cc1cccc(NC(=O)c2ccccc2-c2ccccc2)n1 | 0.551 | 64.2 mL/min/kg | 686 mL/min/kg | 33.1 µg/mL (≈ 115 µM) | – | –
O=C(NCCN1CCc2ccccc2C1=O)c1ccon1 | 1.18 | ≤ 4.74 mL/min/kg | 56.3 mL/min/kg | – | – | –
Cc1cnc(NC(=O)Cc2coc3cc(C)c(C)cc23)s1 | – | – | – | 0.32 µg/mL (≈ 1.07 µM) | – | –
O=C(NCc1ccc(-n2cncn2)nc1)c1csc2c1CCCC2 | 0.992 | 22.1 mL/min/kg | 196 mL/min/kg | 5.3 µg/mL (≈ 15.6 µM) | – | –
COCC(=O)NC1(C#Cc2ccc(NC(=O)C3CC3)nc2)CCCCC1 | – | 16.7 mL/min/kg | 153 mL/min/kg | – | – | –
Cc1ccnc(C2CCN(C3CCCC3)CC2)n1 | 1.12 | ≤ 4.74 mL/min/kg | 848 mL/min/kg | 16.1 µg/mL (≈ 65.5 µM) | – | –
c1cnc(N2CC(c3nc4ccccc4[nH]3)C2)nc1 | 3.96 | 10.1 mL/min/kg | 33.5 mL/min/kg | 35 µg/mL (≈ 139 µM) | – | –
O=C(NNc1ccccc1)c1ccncc1 | 0.738 | – | – | – | – | –
Cc1nc(-c2ccccc2)c(C(=O)Nc2cc(Cl)cc(Cl)c2)s1 | – | 25.7 mL/min/kg | 230 mL/min/kg | – | – | –
Cc1ncsc1-c1nc(CNc2cc(F)cc(F)c2)no1 | – | 65.7 mL/min/kg | 661 mL/min/kg | – | – | –
N#Cc1c(O)nc(SCc2cccc(F)c2F)nc1C1CC1 | 0.817 | – | – | 2.1 µg/mL (≈ 6.58 µM) | – | –
NCCCc1nc(-c2ccncc2)cs1 | – | 29.3 mL/min/kg | 239 mL/min/kg | – | – | –
C[C@@H](NC(=O)c1cc(Br)c2c(c1)OCCO2)c1cn(-c2ccccc2)nn1 | 3.48 | – | – | – | – | –
CC(C)c1nsc(N2CCC(Nc3cccnc3)CC2)n1 | 0.816 | 26.3 mL/min/kg | 403 mL/min/kg | – | – | –
COc1cc(C(C)C)c2c(c1)S(=O)(=O)N(COc1cc(=O)n3cccc(OCCN4CCCCC4)c3n1)C2=O | 91.5 | 162 mL/min/kg | 250 mL/min/kg | 53.4 µg/mL (≈ 95.9 µM) | – | –

Structure (SMILES) | MDR1-MDCK efflux ratio | intrinsic clearance, human liver microsomes | intrinsic clearance, rat liver microsomes | aqueous solubility | fraction unbound, human plasma | fraction unbound, rat plasma
C[C@@H](Cn1nc2c(cc1=O)CCCCC2)NC(=O)CCc1ccccc1 | – | 222 mL/min/kg | 3560 mL/min/kg | – | – | –
CCOc1ccc2nc3c(cc2c1)CN(CCOC)C(=O)O3 | – | 12 mL/min/kg | 215 mL/min/kg | – | – | –
C[C@@H]1CC(=O)Nc2cccc(-c3ccc4c(c3)c(-c3cnn(C)c3)nn4C)c2N1 | 57.3 | 8.83 mL/min/kg | 46.5 mL/min/kg | – | – | –
COCC1CCN(c2noc(-c3cccs3)n2)CC1 | 0.541 | 39.6 mL/min/kg | 325 mL/min/kg | 12.9 µg/mL (≈ 46.1 µM) | – | –
Cn1cc(C(=O)N2CCC(CC(=O)O)CC2)cn1 | – | ≤ 4.74 mL/min/kg | ≤ 10.7 mL/min/kg | 57.3 µg/mL (≈ 228 µM) | – | –
COc1cccc(C)c1C(=O)N(C)Cc1ncc[nH]1 | 6.32 | ≤ 4.74 mL/min/kg | 425 mL/min/kg | – | – | –
O=C(CC1CCN(c2ncc(Cl)cn2)CC1)N1CCOCC1 | 0.764 | ≤ 4.74 mL/min/kg | 46.9 mL/min/kg | 51.2 µg/mL (≈ 158 µM) | – | –
C=CCc1ccccc1OCC(O)CNC(C)C (configuration not stated) | – | – | – | – | – | 0.313
Nc1nc(-c2ccccc2)c(C(=O)Nc2ccc(Cl)c(Cl)c2)s1 | 0.643 | – | – | 0.5 µg/mL (≈ 1.37 µM) | – | –
CN(CC1(CO)CCCC1)C(=O)CCN1CCCCC1=O | 21.2 | ≤ 4.74 mL/min/kg | 113 mL/min/kg | – | – | –
CC1(c2ccn[nH]2)CCN(Cc2ccco2)CC1 | 0.904 | ≤ 4.74 mL/min/kg | 76.4 mL/min/kg | 21 µg/mL (≈ 85.5 µM) | – | –
Cc1nccc(-c2cccc(NCC(=O)N3CCCCCCC3)c2)n1 | 0.748 | 302 mL/min/kg | 2050 mL/min/kg | 55.6 µg/mL (≈ 164 µM) | – | –
Cc1ccc(F)cc1S(=O)(=O)Nc1ccc(C(=O)N2CCCC2)cc1 | 22.3 | 127 mL/min/kg | 6150 mL/min/kg | – | – | –
O=C(NO)c1cnc(NC2(c3cccc(F)c3)CCCCC2)nc1 | – | 14.4 mL/min/kg | 306 mL/min/kg | – | – | –
O=C(COCc1nc2ccccc2s1)N1CCC(n2c(=O)[nH]c3ccccc32)CC1 | – | 68.6 mL/min/kg | 1020 mL/min/kg | – | – | –
CC1(C)CC(=O)c2c(C(F)(F)F)nn(-c3ccc(C(N)=O)c(N[C@H]4CC[C@@H](O)CC4)c3)c2C1 | 109 | 47.7 mL/min/kg | 108 mL/min/kg | – | – | –
CS(=O)(=O)c1ccc(-c2cnc(NCc3ccco3)n3cnnc23)cc1 | 14.8 | 15.7 mL/min/kg | 31.2 mL/min/kg | 36.4 µg/mL (≈ 98.5 µM) | – | –
Cn1cc(-c2nc(C(F)(F)F)c[nH]2)cn1 | – | – | – | 40.2 µg/mL (≈ 186 µM) | – | –
O=C(c1ccc(Cl)cc1)N1CCC(c2nnc3n2CCCC3)CC1 | 128 | ≤ 4.74 mL/min/kg | ≤ 10.7 mL/min/kg | – | – | –
Cc1nn(-c2ccc(F)cc2)c(Cl)c1C(=O)N1CCC(S(=O)(=O)C(C)C)CC1 | 14.6 | ≤ 4.74 mL/min/kg | 14.2 mL/min/kg | 67.3 µg/mL (≈ 157 µM) | – | –
